The values that follow come from patent US20210196714A1, “COMPOSITIONS AND METHODS FOR TREATING DISORDERS CHARACTERIZED WITH ABERRANT RAS/MAPK SIGNALING” (Duke University, priority 2018, published 2021).

The structures appear in SMILES notation. Entries after “also recorded” stand apart in the source; their conditions may differ.

This test concerns kmt2d+/−×kmt2d+/− progeny. The test is described as follows: Neural differentiation (sox2/huc staining) in stable kmt2d mutant. It is filed as in vivo, zebrafish. The following applies: 100 mM dmDf, 2 dpf. The source says:
FIG. 12: Treatment with dmDf rescues the defects of stable kmt2d mutant. kmt2d+/− adults were in-crossed and the embryos were then collected at 1 dpf, 2 dpf and 5 dpf to assess dmDf efficacy. […] Error bars show SEM (standard error of the mean).
Although the small molecule testing data in CRISPR F0 mosaic models are consistent with morphant phenotypes (and rescue), experiments recognized the necessity of testing the potential efficacy of dmDf in a stable genetic model that is a better genotypic proxy to human patients. […] In addition to examining proliferation of cells in the brain, experiments assessed whether neural differentiation is affected (see, Van Laarhoven, P. M. et al. Hum Mol Genet 24, 4443-53 (2015)).
For convergence and extension (CE) phenotyping, embryos were scored as described (see, Leitch, C. C. et al. Nat Genet 40, 443-8 (2008)) at the 8-10 somite stage, and images were captured using an AZ100 microscope and NIS Elements software (Nikon). […] The distance between Meckel's (MK) and ceratohyal (CH) cartilages was measured on ventral bright field images with Image J (NIH). […] Fluorescence signal on embryo heads was imaged with the Nikon AZ100 microscope and DS-Qi1MC digital camera using […] Z-stacks to generate extended depth of focus images. Cell numbers were quantified using the ImageJ ICTN plugin (NIH). […]

For `CC(C)c1nc(-c2cccc(NS(=O)(=O)c3c(F)cccc3F)c2F)c(-c2ccnc(N)n2)s1` [Compound 8, desmethyl-Dabrafenib], the “perturbed differentiation (organization of sox2+ and huc+ cells)” value is recorded as “appears to ameliorate; also recorded: attenuated this pathology”.
